Legend:
CXCR3 [1] = molecular target: T1, CXCR3 (Homo sapiens, UniProt P49682); experiment: CXCR3 Ca2+ mobilization (FLIPR), stable hCXCR3-CHO cell line, I-TAC stimulated; type: cell-based; parameters: host or cells: CHO cells stably expressing hCXCR3; settings: hCXCR3-CHO cells, I-TAC 100 nM stimulated Ca2+ response; read-out: Ca-ITAC
T1 sequence (P49682 1-368): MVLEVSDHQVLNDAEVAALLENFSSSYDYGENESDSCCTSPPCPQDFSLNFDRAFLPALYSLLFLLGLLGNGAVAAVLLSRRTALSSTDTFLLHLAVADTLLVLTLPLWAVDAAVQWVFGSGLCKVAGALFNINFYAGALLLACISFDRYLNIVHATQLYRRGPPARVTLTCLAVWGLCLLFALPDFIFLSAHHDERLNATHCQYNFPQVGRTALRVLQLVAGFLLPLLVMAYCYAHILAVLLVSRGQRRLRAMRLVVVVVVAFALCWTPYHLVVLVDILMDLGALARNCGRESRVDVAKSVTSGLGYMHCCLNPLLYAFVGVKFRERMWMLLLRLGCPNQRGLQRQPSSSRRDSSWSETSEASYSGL
Protocol: Human chinese hamster ovary (CHO) cell line stably expressing hCXCR3 was purchased from Euroscreen (Belgium) and culture in HAM's F12 (Invitrogen) containing 10% heat inactivated fetal calf serum (Cancerra, Australia), 50 units ml−1 penicillin, 50 μml−1 streptomycin, (Invitrogen, USA) and 400 μg/ml geneticin (G418) (Calbiochem, San Diego), according to the manufacturer.
CXCR3Ca^2+ mobilization was measured using a stable hCXCR3—CHO cell line and a microtiter-plate based assay using FLIPR^TETRA™ (Molecular Devices). In more detail, cells were harvested and plated into black 384-well plates (Becton-Dickinson) at a density of 15 000 cells per well and grown in the incubator for 18 hours. On the next day the media was aspirated and replaced with the cell loading buffer (HBSS—(Invitrogen) based buffer containing calcium indicator and signal enhancer from a commercial Ca2+ assay kit (Becton Dickinson). The plates were incubated for 60 minutes in the incubator, the test compounds were added and the plates equilibrated for 20 minutes at room temperature.
Plates were placed into FLIPR and the CXCR3 agonist (I-TAC, 100 nM) stimulated fluorescence change was quantitated. The activity of CXCR3 antagonists was determined as percent of the CXCR3 ligand I-TAC in the absence of the test compounds (=100% activity).

CXCR3 [2] = molecular target: T1, CXCR3; experiment: Chemotaxis assay ITAC (CXCL11), L1.2-CXCR3 cells; type: cell-based; parameters: expressed in transfected cells; settings: 1 nM CXCL11 (I-TAC), 4 hours
Protocol: Human CXCR3 cDNA was amplified by PCR from a human cells cDNA library (Clontech) and subcloned into pcDNA3.1 (Invitrogen). Murine pre-B L1.2 cells were transfected with hCXCR3-pcDNA3.1 and were grown at 37° C., 5% CO2 in RPMI 1640 medium (Invitrogen, USA) supplemented with 5% heat inactivated fetal calf serum (Cancerra, Australia), 2 mM glutamine (Invitrogen), 50 units ml−1 penicillin, 50 μml−1 streptomycin. Stable transfectant clonal populations were selected using 800 μg/ml geneticin.
L1.2-CXCR3 cells were grown for 24 hours at 0.5×10^6 cells/ml in chemotaxis medium containing 5 mM butyric acid (Sigma). Compounds were on one hand mixed with 1 nM of CXCL11 (I-TAC) in phenol-red free RPMI 1640 (invitrogen) supplemented with 5% fetal bovine serum in presence of 1% DMSO. The CXCL11/compounds mixture was then added to lower chambers of chemotaxis 96 well microplates (neuroprobe), and framed filters ([…] pore size) were put on top of the lower chambers. Compounds were on the other hand mixed with L1.2 CXCR3 cells and incubated in chemotaxis medium at 1.5×10^6 cells/ml in presence of 1% DMSO at 37° C., 5% CO2 for 30 minutes. Cells/compounds mixture was then added on top of the frame filters and migration was performed at 37° C., 5% CO2 for 4 hours. The number of migrated cells in the bottom chamber was determined using the CyQuant GR dye (Molecular Probe), according to the manufacturer.

IC50 (CXCR3 [1]) [nM] | IC50 (CXCR3 [2]) [nM] | SMILES
10500 | 3800 | CCOc1ccc(S(=O)(=O)N(Cc2ccc(C(=O)OC)c(OC)c2)Cc2ccccn2)cc1 [Example 188]
2000 | 2500 | N#Cc1ccc(S(=O)(=O)N(Cc2ccc(C(=O)NC(CO)C(O)c3ccccc3)cc2)Cc2cccnc2)cc1 (stereo not drawn) [Example 114]
12000 | 3240 | Cc1nc(CN(Cc2ccc(-c3nnn[nH]3)cc2)S(=O)(=O)c2ccc(Cl)cc2)no1 [Example 73, 4-chloro-N-(5-methyl-1,2,4-oxadiazol-3-ylmethyl)-N-[4-(2H-tetrazol-5yl)benzyl]benzene sulfonamide]
3000 | 4310 | N#Cc1ccc(S(=O)(=O)N(Cc2ccc(C(=O)NCc3ccncc3)cc2)Cc2ccccn2)cc1 [Example 137]
200 | 630 | N#Cc1ccc(S(=O)(=O)N(Cc2ccc(C(=O)N[C@@H](Cc3ccccc3)C(N)=O)cc2)Cc2ccccn2)cc1 [Example 100]
5500 | 2070 | CCOc1ccc(S(=O)(=O)N(Cc2ccc(C(=O)N[C@H]3[C@@H]4CN(C(C)=O)C[C@@H]43)cc2)Cc2ccccn2)cc1 [Example 107]
300 | 510 | CC(C)(C)OC(=O)N1C[C@@H]2[C@H](C1)[C@H]2NC(=O)c1ccc(CN(Cc2ccccc2)S(=O)(=O)c2ccc(Cl)cc2)cc1 [Example 106]
350 | 8860 | O=S(=O)(c1ccc(Cl)cc1)N(Cc1ccc(-c2nnn[nH]2)cc1)C1CCc2cc(Cl)ccc21 (stereo not drawn) [Example 179]
750 | 130 | N#Cc1ccc(S(=O)(=O)N(Cc2ccc(C(=O)NCC(O)c3ccccc3)cc2)Cc2cccnc2)cc1 (stereo not drawn) [Example 109]
8000 | 930 | N#Cc1ccc(S(=O)(=O)N(Cc2ccc(C(=O)NCc3cccnc3)cc2)Cc2ccccn2)cc1 [Example 136]
2000 | 4600 | CCOc1ccc(S(=O)(=O)N(Cc2ccc(C(=O)O)c(F)c2)Cc2ccccn2)cc1 [Example 66, 4-{[(4-Ethoxy-benzenesulfonyl)-pyridin-2-ylmethyl-amino]-methyl}-2-fluoro-benzoic acid]
400 | 50 | O=C(Nc1ccc(CN(Cc2ccccn2)S(=O)(=O)c2ccc(Cl)cc2)cc1)C(O)c1ccccc1 (stereo not drawn) [Example 170]
870 | 2140 | CC(=O)N1C[C@@H]2[C@H](C1)[C@H]2NC(=O)c1ccc(CN(Cc2ccccn2)S(=O)(=O)c2ccc(C#N)cc2)cc1 [Example 119]
400 | 350 | O=C(NC1(c2ccc(Cl)cc2)CC1)c1ccc(CN(Cc2ccccn2)S(=O)(=O)c2ccc(Cl)cc2)cc1 [Example 125]
600 | 240 | O=C(NC1(c2cccc(Cl)c2)CC1)c1ccc(CN(Cc2ccccn2)S(=O)(=O)c2ccc(Cl)cc2)cc1 [Example 122]
400 | 1000 | Cn1c(CNC(=O)c2ccc(CN(Cc3ccccn3)S(=O)(=O)c3ccc(C#N)cc3)cc2)nc2ccccc21 [Example 143]
700 | 170 | N#Cc1ccc(S(=O)(=O)N(Cc2ccc(C(=O)NC3(c4ccc(Cl)cc4)CC3)cc2)Cc2ccccn2)cc1 [Example 126]
1450 | 1030 | N#Cc1ccc(S(=O)(=O)N(Cc2ccc(C(=O)NCCc3ccc(S(N)(=O)=O)cc3)cc2)Cc2ccccn2)cc1 [Example 99]
2000 | 130 | Cc1nc(CN(Cc2ccc(-c3nnn[nH]3)cc2)S(=O)(=O)c2ccc(Cl)cc2)cs1 [Example 68, 4-chloro-N-(2-methyl-thiazol-4-ylmethyl)-N-[4-(2H-tetrazol-5yl)benzyl]benzenesulfonamide]
2000 | 2520 | O=S(=O)(c1ccc(Cl)cc1)N(Cc1ccc(-c2nnn[nH]2)cc1)Cc1ccc2ccccc2n1 [Example 75]

IC50 (CXCR3 [1]) [nM] | IC50 (CXCR3 [2]) [nM] | SMILES
505 | 3060 | N#Cc1ccc(S(=O)(=O)N(Cc2ccc(C(=O)O)c(F)c2)Cc2ccccn2)cc1 [Example 67, 4-{[[(4-cyanophenyl)sulfonyl](pyridin-2-ylmethyl)amino]methyl}-2-fluorobenzoic acid]
400 | 82 | COC(=O)C(NC(=O)c1ccc(CN(Cc2ccccn2)S(=O)(=O)c2ccc(Cl)cc2)cc1)c1ccc(F)c(F)c1 (stereo not drawn) [Example 147]
900 | 270 | COC(=O)c1ccc(CNC(=O)c2ccc(CN(Cc3ccccn3)S(=O)(=O)c3ccc(Cl)cc3)cc2)cc1 [Example 132]
500 | 380 | CCOc1ccc(S(=O)(=O)N(Cc2ccc(C(=O)NC3(c4ccc(Cl)cc4)CC3)cc2)Cc2ccccn2)cc1 [Example 127]
2000 | 666 | O=S(=O)(c1ccc(Cl)cc1)N(Cc1ccc(-c2nnn[nH]2)cc1)Cc1nccc2ccccc12 [Example 74, 4-chloro-N-(isoquinolin-1-ylmethyl)-N-[4-(2H-tetrazol-5yl)benzyl]benzene sulfonamide]
800 | 54 | COC(=O)[C@@H](NC(=O)c1ccc(CN(Cc2ccccn2)S(=O)(=O)c2ccc(Cl)cc2)cc1)c1ccccc1 [Example 342]
17000 | 760 | CCOc1ccc(S(=O)(=O)N(Cc2ccc(C(=O)N[C@H](CO)Cc3ccccc3)cc2)Cc2ccccn2)cc1 [Example 87]
2000 | 400 | COC(=O)[C@@H](Cc1ccccc1)NC(=O)c1ccc(CN(Cc2ccccn2)S(=O)(=O)c2ccc(Cl)cc2)cc1 [Example 145]
700 | 10 | CC(=O)OC(C(=O)Nc1ccc(CN(Cc2ccccn2)S(=O)(=O)c2ccc(Cl)cc2)cc1)c1ccccc1 (stereo not drawn) [Example 169]
320 | 1300 | N#Cc1ccc(S(=O)(=O)N(Cc2ccc(C(=O)NC3(c4ccccc4)CC3)cc2)Cc2cccnc2)cc1 [Example 113]
3000 | 3890 | O=S(=O)(c1ccc(Cl)cc1)N(Cc1ccccc1)Cc1ccc(-c2nnn[nH]2)cc1 [Example 121]
100 | 60 | N#Cc1ccc(S(=O)(=O)N(Cc2ccc(C(=O)NCc3ccccc3)cc2)Cc2ccccn2)cc1 [Example 138]
100 | 73 | O=C(NC(C(=O)O)c1ccc(F)c(F)c1)c1ccc(CN(Cc2ccccn2)S(=O)(=O)c2ccc(Cl)cc2)cc1 (stereo not drawn) [Example 149, (4-{[(4-Chloro-benzenesulfonyl)-pyridin-2-ylmethyl-amino]-methyl}-benzoylamino)-(3,4-difluoro-phenyl)-acetic acid]
2000 | 280 | CCOc1ccc(S(=O)(=O)N(Cc2ccc(C(=O)NC3(c4ccccc4)CC3)c(OC)c2)Cc2ccccn2)cc1 [Example 189]
20 | 70 | CC(C)(C)OC(=O)N1C[C@@H]2[C@H](C1)[C@H]2NC(=O)c1ccc(CN(Cc2ccccn2)S(=O)(=O)c2ccc(Cl)cc2)cc1 [Example 105]
2000 | 260 | CCOc1ccc(S(=O)(=O)N(Cc2ccc(C(=O)N[C@H]3[C@@H]4CN(C(=O)OC(C)(C)C)C[C@@H]43)cc2)Cc2cccnc2)cc1 [Example 94]
200 | 4470 | O=S(=O)(c1ccc(OC(F)(F)F)cc1)N(Cc1ccc(-c2nnn[nH]2)cc1)Cc1ccccn1 [Example 120]
10000 | 4180 | Cc1nnc(CNC(=O)c2ccc(CN(Cc3ccccn3)S(=O)(=O)c3ccc(C#N)cc3)cc2)o1 [Example 142]
1430 | 9050 | O=S(=O)(c1cccc(-c2ccccc2)c1)N(Cc1ccc(-c2nnn[nH]2)cc1)Cc1ccccn1 [Example 166]
